The source of these data is patent EP2508186A1, “Phenoxazinones or phenothiazones as inhibitors of amyloid formation” (Max-Delbrück-Centrum für Molekulare Medizin, priority 2011, dated 2012).

Assay [1] deals with SH-SY5Y neuroblastoma cells. In words: MTT assay of Aβ42 toxicity. In kind it is cell-based. Conditions: Aβ42 5 µM, different concentrations of 04, 48 h; Aβ42 alone ∼50% inhibition. How it is done:
2.2.8. 04-mediated acceleration of amyloidogenesis reduces Aβ42 toxicity in cell-based assays and brain slices. To study whether O4-mediated conversion of aggregation intermediates into stable amyloid fibrils influences Aβ42 toxicity, SH-SY5Y neuroblastoma cells were incubated for 48 h with soluble Aβ42 peptides and different concentrations of 04. Viability of cells was examined using a 3-(4,5-dimethylthiazol-2yl)-2,5-diphenyltetrazolium bromide (MTT) assay (Hansen, 1989).

For the next assay, the system named is primary cortical neurons. In words: Aβ42 toxicity in primary cortical neurons. Type of assay: cell-based. Conditions: after addition of 04 to neuronal cultures.
The test system of assay [2] is Aβ42 peptides. In words: Binding to Aβ42 10-mer peptide array and short peptides. The note with it: 04 300 µM, 33 peptides overlapping by 9 residues, colorimetric. How it is done:
(§1) 2.2.5. 04 binds preferentially to hydrophobic regions in Aβ42 peptides. To define potential 04 binding regions in Aβ42 peptides an array of 33 synthetic peptides representing the complete Aβ42 sequence was prepared (Beutling, 2008) and probed for an interaction with the chemical compound. Each synthetic peptide was composed of 10 amino acids, which overlapped in sequence with the next peptide by 9 residues.
(§2) We next investigated whether the position of hydrophobic amino acids in the Aβ42 peptide sequence influences 04 binding. Two short peptides containing aromatic residues were synthesized (A: KLVFFAE, aa 16-22 of Aβ42 and B: EFAVFLK, a scrambled version of A) and 04 binding was quantified colorimetrically.

Assay [3] addresses T1, Aβ42 peptides (Homo sapiens, UniProt P05067).
T1 construct: made in house; spotted short peptides
The assay is described as above. Conditions: dot blot, colorimetric, n = 4. How it is done:
as §1, §2

Assay [4] concerns the target T2, Aβ42 (Homo sapiens, UniProt P05067).
T2 construct: the amyloid-β 1-42 (Aβ42) peptide
Briefly: Membrane filter retardation assay (FRA) of Aβ42 aggregation. In kind it is biochemical. How it is done:
2.1.1. Protein aggregation. For aggregation reactions, Aβ42 stock solution (1 mM in DMSO) was diluted in phosphate buffer (100 mM sodium phosphate, 10 mM NaCl, pH 7.4) to 15 µM and incubated in 1.5 ml Eppendorf tubes (Eppendorf, Germany) at 37°C. Generation of soluble Aβ42 oligomers was performed as described (Lambert, 1998). Aβ42 DMSO stock solutions were diluted in Ham's F12 medium without phenol red (Biosource) at a final peptide concentration of 100 µM, with or without test compounds. After brief vortexing, samples were incubated at 4-6°C for 24 h. […]
2.1.2. […] Aggregates retained on the filter membrane were detected using the 6E10 antibody (1 : 5.000) (Sigma, Deisenhofen, Germany), and secondary antibodies conjugated to either horseradish peroxidase or alkaline phosphatase (Promega, Germany). […] After 30 min incubation at 37°C with proteinase K, samples were denatured and analyzed by FRA.
2.2.1 Identification of small molecules that stimulate Aβ42 aggregation. In order to find chemical compounds that promote Aβ42 amyloidogenesis, a membrane filter retardation assay (FRA) was established that allows the identification of large, insoluble protein aggregates, while monomers and small, soluble oligomers are not detected (Fig. 1). […]

Assay [5] relates to hippocampal rat brain slices. In words: Hippocampal long-term potentiation (LTP) in brain slices, CA1 area. Conditions: Aβ42 monomers and small oligomers added to slices, with 04; LTP evoked by high-frequency stimulation. As to the method:
Finally, we investigated whether 04 treatment influences Aβ42-mediated impairment of hippocampal long-term potentiation (LTP) in rat brain slices (Wang, 2004; Walsh, 2002). A preparation of Aβ42 peptides containing monomers and small oligomers was added to hippocampal brain slices and LTP was measured in the CA1 area.

Assay [6] concerns the target T2, Aβ42. Briefly: Thioflavin T (ThT) seeding assay with 04-generated Aβ42 fibrils. Type of assay: biochemical. Conditions: fibrils produced with equimolar or 5-fold excess 04, sonicated seeds 3 % v/v added to Aβ42 15 µM monomers. The text has this:
We also investigated whether 04-generated Aβ42 fibrils are indeed seeding-competent structures. Amyloid fibrils were produced in vitro in the presence and absence of 04 and added as seeds to an excess of unpolymerized Aβ42 monomers. The formation of β-sheet-rich amyloid fibrils was then monitored over time using a Thioflavin T (ThT) dye binding assay (LeVine, 1999). […] Thus, the β-sheet-rich Aβ42 fibrils produced in the presence of 04 are seeding-competent structures that efficiently promote amyloid fibrillogenesis.

T2 sequence (P05067 672-713 limits assumed): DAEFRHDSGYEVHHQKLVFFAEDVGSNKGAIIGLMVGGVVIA

Regarding `O=c1cc2oc3cc(O)c(-c4ccc(O)cc4O)cc3nc-2cc1-c1ccc(O)cc1O` [Compound 04, 2,8-bis-(2,4-dihydroxyphenyl)-7-hydroxy-phenoxazin-3-one], the “Aβ42-caused inhibition of MTT reduction” value in assay [1] was “suppressed in a concentration-dependent manner”. In addition, in the assay on primary cortical neurons, the Aβ42-mediated cellular toxicity entry is reported as “significantly reduced”. The “binding to 10-mer peptide array of the Aβ42 sequence” value in the assay on Aβ42 peptides [2] is recorded as “most strongly interacts with Aβ42 peptides, which contain non-polar, hydrophobic amino acids”. Moreover, the “binding to peptide A (KLVFFAE, aa 16-22) and scrambled peptide B (EFAVFLK)” value on Aβ42 peptides [3] is given as “readily interacts with peptide A but not with the control peptide B”. Also, on Aβ42 [4] (Aβ42 15 µM, equimolar or 5-fold molar excess of compound, detection with 6E10 antibody), the “formation of SDS-stable insoluble Aβ42 aggregates” value is on record as “promotes spontaneous assembly of Aβ42 insoluble aggregates in a concentration-dependent manner”. Moreover, the “proteinase K resistance of Aβ42 aggregates” value on Aβ42 [4] (aggregates generated 4 and 7 d at 37°C with or without 04 (15 µM), proteinase K 10-200 µg/ml, 30 min at 37°C) is “more proteinase K resistant than untreated aggregates”. Further, the “Aβ42 oligomer block of LTP” value in assay [5] is listed as “suppressed”. The “seeding competence of 04-generated Aβ42 fibrils (ThT fluorescence)” value at Aβ42 [6] was “accelerate amyloid polymerization”.
